The text below walks through data of patent US12053465B2, “KCC2 expression enhancing compounds and uses thereof” (Whitehead Institute for Biomedical Research, priority 2017, dated 2024).

Experiment [1] deals with KCC2 expression (KCC2-2A-luciferase reporter). Kind of experiment: KCC2-2A-luciferase reporter compound screening with RTT KCC2 reporter neurons. The experiment is classed as cell-based, human. The following applies: MECP2-null RTT human KCC2 reporter neurons; LINCS, SMART, ICCB libraries; Luc/CTG normalized to in-plate DMSO; hit = B score >3. Summed up: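 MECP2-null RTT human neurons carrying a KCC2-2A-luciferase reporter, differentiated 4 weeks, were treated with library compounds at 10 μM for 1–2 weeks at 37 °C. Lysate luciferase was normalized to CellTiter-Glo ATP per well and expressed as fold change over in-plate DMSO. Hits were called at B score >3.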
Background: Reporter assays use an easily measured gene product as a stand-in for the process of interest.

A further experiment has as its system KCC2 expression. Nature of the experiment: Western blot of KCC2 in cultured human RTT neurons. The experiment is classed as cell-based. The following applies: Western blot; for KCC2 expression: cultured human RTT neurons. Summed up: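 Cultured neurons lysed in RIPA buffer (pH 7.6) with sonication; immunoblotted on PVDF with KCC2 antibody (1:2000) overnight at 4° C., HRP secondary.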
In general terms: Immunoblotting shows a protein as a band on a membrane.

Experiment [2] deals with Mecp2 mutant mice. Kind of experiment: Plethysmograph breathing measurement in Mecp2 mutant mouse model of RTT. The experiment is classed as in vivo. The following applies: male Mecp2 mutant mice; daily injection, two weeks; vs DMSO- or EtOH-injected control. The procedure: (§1) We assessed the in vivo efficacy of KEECs by treating RTT disease-related symptoms such as breathing pauses and reduced locomotion (58) in a Mecp2 mutant mouse model of RTT. […] Plethysmograph and locomotion measurements were made in 4-6 week-old male Mecp2 mutant animals as a pre-treatment control time point and were then injected daily with KEECs KW-2449 or Piperine. Injection of the solvent DMSO or ethanol (EtOH) served as vehicle controls (FIG. 15A). The same two behavioral measurements in vehicle or KEEC-injected Mecp2 mutant animals were performed again two weeks after the start of daily injections. Each animal's ‘after injection’ data were compared to the ‘before injection’ level to assess behavioral changes.
Male Mecp2 mutant mice (Mecp2^−/y, e.g. the Bird model) between 4-12 weeks of age were used for the in vivo experiments. Subjects were divided into drug treated KO (Piperine/KW-2449), and vehicle treated KO (EtOH/DMSO) groups. Animals were randomly assigned to treatment arms with approximately equivalent numbers in each group. […]
A full body plethysmograph chamber (EMKA Inc, PA) was used to measure breathing patterns. […] For each test, the subject was left in the chamber for 20 minutes, afterwards its breath pattern was recorded for the next 20 minutes, and the estimated amplitude modulation index (eAMI) was calculated from the breath trace to label breath pauses automatically. […]

The subject of experiment [3] is Mecp2 mutant mice. Nature of the experiment: Locomotion (infrared beam break) in Mecp2 mutant mouse model of RTT. In kind it is in vivo. How it is done:
as §1
Male Mecp2 mutant mice (Mecp2^−/y, e.g. the Bird model) between 4-12 weeks of age were used for the in vivo experiments. Subjects were divided into drug treated KO (Piperine/KW-2449), and vehicle treated KO (EtOH/DMSO) groups. Animals were randomly assigned to treatment arms with approximately equivalent numbers in each group.
KW-2449 stock solution was prepared at 10 mg/ml with DMSO, and Piperine stock solution at 30 mg/ml with EtOH. 20 μl of stock solution were diluted with 1 ml saline for injection. Daily drug treatments or sham injections were performed on both groups between P28 and P56, for at least two weeks, as Mecp2 mutant mice start to show symptoms around P28 and die around P60. Both following tests were performed on both groups of mice before the injections start, and repeated at the end of the injection period. The animals' performance was then compared before and after drug/vehicle injections.
To measure the subjects' nighttime locomotion, a 1-D infrared light-beam frame (ActiMot, TSE-systems, MO) was used. Animals were single-housed in new cages with the same setup as their home cages. The infrared monitor was set up for each cage and the beam crossings was recorded between 17:00 and 9:00 the next morning, where the lights were turned off between 19:00 and 7:00. The average beam crossing frequency during the night (21:00-5:00) was used as the subject's activity score, and the average beam crossing frequency after lights on (7:00-9:00) was used as the subject's day time activity score. The time periods where the mouse is stationary for >5 minutes are discarded to reduce artifact caused by the mouse sleeping. As we look at both day-time and night-time locomotion, a bonferroni correction with repeated comparison number of 2 was applied. All behavioral analyses were performed by experimenters who were blind to the treatment condition.

Experiment [4] deals with mouse models of autism and depression. The following applies: intraperitoneal (IP) injection; previous work (59, 60); cited from earlier work.

Each structure is given as a SMILES string. Entries after “also recorded” stand apart in the source; their conditions may differ.

Consider `O=C(/C=C/C=C/c1ccc2c(c1)OCO2)N1CCCCC1` [Piperine, (2E,4E)-5-(Benzo[d][1,3]dioxol-5-yl)-1-(piperidin-1-yl)penta-2,4-dien-1-one], for which the “B Score” value in experiment [1] is 4.69. Moreover, in the experiment on KCC2 expression (cultured ESC-derived human RTT neurons), the “concentration at which treatment significantly increases KCC2 expression” value was found to be 10 µM. The KCC2 expression result was “induced KCC2 expression in a dose-dependent manner; also recorded: significant increase in KCC2 expression” in the experiment with KCC2 expression and “increase KCC2 expression” in the experiment on KCC2 expression (listed as piperine). For the same compound, in the experiment with Mecp2 mutant mice [2], the “frequency of breathing pauses” value is “significantly reduced the frequency of breathing pauses”. For the same compound, the day-time locomotion entry in the experiment on Mecp2 mutant mice [3] (Mecp2 mutant animals, vs EtOH control) was “significantly increased day-time locomotion”. Further, in the experiment with Mecp2 mutant mice [3] (male Mecp2 mutant mice, daily injection, two weeks, vs DMSO- or EtOH-injected control), the locomotive activities result is recorded as “increased locomotive activities”. Moreover, the “symptoms in mouse models of autism and depression” value in experiment [4] is “improved symptoms”.
